For six molecules, CATDS and potency estimated from few doses results are on record in article PMC11062922 (Nature Chemical Biology, 2023).

For one experiment, the target named is T1, NUAK1 (Homo sapiens, UniProt O60285).
T1 construct: to maximize the representation of endogenous proteins; endogenous in cells
T1 sequence (O60285 1-661): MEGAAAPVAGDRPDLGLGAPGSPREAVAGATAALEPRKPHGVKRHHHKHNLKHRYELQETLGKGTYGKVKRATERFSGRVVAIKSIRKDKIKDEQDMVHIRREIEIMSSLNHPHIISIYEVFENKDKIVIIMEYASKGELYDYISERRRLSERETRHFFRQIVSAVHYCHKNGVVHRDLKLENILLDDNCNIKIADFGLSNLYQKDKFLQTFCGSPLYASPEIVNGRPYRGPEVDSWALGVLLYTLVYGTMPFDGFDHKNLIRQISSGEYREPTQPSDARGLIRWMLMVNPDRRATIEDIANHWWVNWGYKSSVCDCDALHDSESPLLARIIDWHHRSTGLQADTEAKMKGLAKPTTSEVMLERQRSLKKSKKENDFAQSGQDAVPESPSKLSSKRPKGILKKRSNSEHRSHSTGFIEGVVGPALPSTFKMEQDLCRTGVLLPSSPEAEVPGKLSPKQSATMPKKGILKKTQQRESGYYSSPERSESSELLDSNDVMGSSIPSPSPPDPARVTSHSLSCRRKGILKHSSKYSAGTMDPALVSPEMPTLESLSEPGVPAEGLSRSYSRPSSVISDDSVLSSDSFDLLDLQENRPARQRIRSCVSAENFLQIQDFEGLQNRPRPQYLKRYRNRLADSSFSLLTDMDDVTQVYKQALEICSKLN
Briefly: Kinobeads two-dose competition binding: NUAK1. Conditions: for CATDS: target NUAK1. The text has this:
Briefly, Kinobeads comprise seven broad-spectrum small molecule kinase inhibitors immobilized on Sepharose beads. […]. Compounds of interest are set to compete for target protein binding with Kinobeads in the lysate and the amount of a given protein bound to Kinobeads in the presence of a compound can be quantified relative to a dimethylsulfoxide (DMSO) vehicle control by label-free mass spectrometry. This assay measures the physical interaction of a compound with thousands of endogenous proteins in parallel and, when systematically increasing the concentration of competitor, enables the calculation of an apparent interaction constant ( Kdapp ) for each compound and protein.
Kinobeads pulldown experiments were performed as described previously[13],[14],[17] with minor modification. […] The protein concentration was adjusted to 5 mg ml^−1. Kinase inhibitors were spiked into 0.5 ml of cell lysate at final concentrations of 100 and 1,000 nM (or DMSO, 0.3, 1, 3, 10, 30, 100, 300 and 1,000 nM for full dose experiments). […] Lysates were incubated for 45 min at 4 °C. Subsequently, lysates were incubated with Kinobeads ε (17.5 µl of settled beads) for 30 min at 4 °C. To assess the degree of protein depletion from the lysates by Kinobeads, the flow through of the DMSO control was recovered for a pulldown of pulldown experiment where the lysate was incubated a second time with fresh Kinobeads. Beads were washed in three steps with buffer containing 0.4%, 0.2% and no IGEPAL. Bound proteins were reduced with 50 mM DTT in 8 M Urea, 40 mM Tris-HCl pH 7.4 for 30 min at room temperature. After alkylation with 55 mM chloroacetamide, the urea concentration was reduced to 1–2 M and proteins were digested with trypsin. Acidified peptides were desalted and concentrated using SepPak tC18 µEluation plates (Waters). Samples were frozen, dried by vacuum centrifugation and stored at −20 °C.
Each kinase inhibitor was processed together with all DMSO controls of the same plate. Additionally, each search was supplemented with five high quality DMSO controls for consistent peptide identification and protein grouping. The resultant file (proteinGroups.txt) was used for subsequent filtering, normalization, data visualization and target annotation that was automatically performed by a data processing pipeline built in house that used R (including the ‘drc’ and ‘heatmap’ packages). First, reverse hits, potential contaminants and not quantified proteins in the DMSO control samples were discarded. Protein raw and label-free quantification intensities were normalized to the median DMSO control intensity to obtain relative residual binding intensities for each protein group at every inhibitor concentration and standard deviations of the DMSO control intensity were calculated. IC50 values were estimated based on the following equation IC50=I×100−inhibition/inhibition where [I] is the inhibitor concentration that was used for IC50 calculation and ‘inhibition’ the relative residual binding intensity. […]. Estimated Kdapp values were then calculated by multiplying the estimated IC50 values with a protein-dependent correction factor that was limited to a maximum value of one. The correction factor accounts for the depletion of a target protein from the lysate by Kinobeads. The depletion can be measured by the ratio of the amount of protein captured in two consecutive pulldowns of the same DMSO control lysate. In this study, correction factors were determined in separate experiments using the same lysate mixture and the same bead batch. Correction factors were set to the median of all correction factors. Targets of kinase inhibitors were annotated using the previously published random forest classifier. A training data set was annotated manually. […]

For another experiment, the system named is PKM. Briefly: Kinobeads competition binding: PKM. Further details: species or system human. Conditions: target PKM.

On to `Nc1ncnc2[nH]c(-c3ccccc3)nc12` [AH5015_KCGS], for which the CATDS on NUAK1 and in the experiment with PKM was 0 in each case.

Consider `CCN1CCN(Cc2ccc(Nc3ncc(F)c(-c4cc(F)c5nc(C)n(C(C)C)c5c4)n3)nc2)CC1` [Abemaciclib], for which the CATDS on NUAK1 and in the experiment with PKM was 0 throughout.

Take `CN(C)C/C=C/C(=O)Nc1cc2c(Nc3ccc(F)c(Cl)c3)ncnc2cc1O[C@H]1CCOC1` [Afatinib]: on NUAK1, the CATDS turned out to be 0.

In the case of `CCc1cc2c(cc1N1CCC(N3CCOCC3)CC1)C(C)(C)c1[nH]c3cc(C#N)ccc3c1C2=O` [Alectinib], the CATDS at NUAK1 and in the experiment with PKM was 0 in each case.

With `N#CC1(c2ccc(NC(=O)c3cccnc3NCc3ccncc3)cc2)CCCC1` [Apatinib], the CATDS on NUAK1 and in the experiment on PKM was 0 each time.

Consider `CC(C)N1CC(=O)N(C)c2cnc(Nc3cccc(S(=O)(=O)CCN4CCOCC4)c3)nc21` [BI00009348], for which, on NUAK1 (Kinobeads two-dose, Drugmatrix - all 2, read-out: apparent Kd NUAK1), the potency estimated from few doses was above 1000 nM.
